Columns and labels:
apolipoprotein B (APOB) = test: RT-qPCR APOB mRNA in HepaRG cells; assay type: cell-based, human; conditions: 4 days
Experimental: (§1) Total RNA was extracted with the Nucleospin RNA isolation system purchased from Macherey-Nagel (Düren, Germany), which included a DNase treatment step. Quantification of isolated RNAs was assessed using a Nanodrop 1000 (Thermo Fisher Scientific, Waltham, MA). RNAs were reverse-transcribed into cDNAs using the High-Capacity cDNA Reverse Transcription Kit purchased from Applied Biosystems (Woolston, UK). Gene expression was assessed by real-time quantitative PCR analysis (RT-qPCR) using SYBR Green PCR Master Mix (Applied Biosystems) and a 384-well QuantStudio™ 7 Flex Real-Time PCR System (Thermo Fisher Scientific). Sequences of the primers used to measure gene expression are presented in Supplementary Table 3. Expression of GAPDH was chosen as reference and the 2^−ΔΔCt calculation method was used to express the relative expression of each selected gene.

HepaRG cells [1] = test: Number of nuclei (Hoechst 33342) in HepaRG cells; assay type: cell-based, human; conditions: HepaRG cells treated with TUDCA alone
HepaRG cells [2] = test: Neutral lipids with Nile red in HepaRG cells; conditions: 4 days
Experimental: Briefly, HepaRG cells were seeded in 96-well plates at a density of 2.6 × 10^4 cells/cm^2 and were first incubated in William’s E medium supplemented with 10% FBS (50% FBS from Eurobio and 50% FBS from GE Healthcare), 100 U/mL penicillin, 100 μg/mL streptomycin, 2 mM glutamine, 5 μg/mL insulin, and 50 μM hydrocortisone hemisuccinate. […] During this 1-month period, the culture medium was renewed three times a week. […] HepaRG cells were next cultured in the same FBS/DMSO conditions and incubated for 4 days with each drug at different concentrations. Culture medium was renewed every day and all investigations were performed after 96 h (i.e., 24 h after the fourth treatment). These investigations were mostly performed in 96-well plates except for western blot analysis, for which 6-well plates were used. Experiments were carried out on passages 9 to 16. All drugs (except DPEN), etomoxir, lomitapide, tunicamycin, thapsigargin, and TUDCA were dissolved in DMSO. DPEN was dissolved in water.
Cells were then incubated with PBS containing 0.1 μg/mL Nile red for 30 min and washed once. […] For each well, four pictures were taken at a magnification of × 20 and analyzed with Columbus software (PerkinElmer) for quantification. These pictures were always taken in four different areas around the center of each well, and these areas were the same from one well to another, as programmed by the Columbus software. This software was also designed to count only living cells after exclusion of dying cells harboring nuclei with abnormal shape or altered Hoechst intensity. […] Neutral lipids were then normalized per number of nuclei and expressed relative to control cells. Examples of images used for neutral lipid quantification are shown in Supplementary Fig. 2.

apoB secretion = test: apoB level in culture medium (ELISA), HepaRG cells; assay type: cell-based, human; conditions: 4 days; for Effect on apoB secretion: culture medium, vs control
Experimental: (§2) Experiments were carried out on passages 9 to 16. […] DPEN was dissolved in water.
Twenty-four hours after the last treatment, cell supernatants were removed and stored at − 80 °C until use for apolipoprotein measurement. ApoB level was measured using the Human Apolipoprotein B ELISA^pro kit from Mabtech (Nacka Strand, Sweden), according to the manufacturer’s instructions. Briefly, 50 μL of samples were diluted 2× in Apo ELISA buffer before a 2-h incubation in the precoated strip plates provided in the kit. The plates were washed and incubated 1 h with the biotinylated monoclonal anti-human apoB (LDL-11-biotin) antibody. The plates were then washed and incubated 1 h with a streptavidin–horseradish peroxidase conjugated antibody. After another washing, 3,3′,5,5′-tetramethylbenzidine (TMB) was used as substrate for 15 min before adding a stop solution. Absorbance at 450 nm was then measured using a POLARstar Omega microplate reader (BMG Labtech, Ortenberg). ApoB level was calculated utilizing a four-parameter standard curve, and normalized to the total cellular protein content and expressed in comparison to control cells.

[3] = system: mitochondrial fatty acid oxidation (mtFAO); test: mtFAO with [U-14C]palmitic acid in HepaRG cells; assay type: cell-based, human; conditions: 4 days, vs control
Experimental: as §2
Results were normalized to total protein content determined using the Pierce BCA assay kit from Thermo Fischer Scientific (Waltham, MA). Results were expressed in comparison to control cells.

[4] = system: prolyl 4-hydroxylase subunit beta (P4HB, also known as PDI); test: RT-qPCR P4HB mRNA in HepaRG cells; assay type: cell-based, human; conditions: 4 days, vs control
Experimental: as §1

[5] = system: angiopoietin-like 3 (ANGPTL3); test: RT-qPCR ANGPTL3 mRNA in HepaRG cells; assay type: cell-based, human; conditions: 4 days, vs control
Experimental: as §1

[6] = system: de novo lipogenesis (DNL); test: DNL from [2-14C]acetic acid in HepaRG cells; assay type: cell-based, human; conditions: 4 days, vs control
Experimental: as §2
DNL was assessed by measuring newly synthesized radiolabeled lipids from [2-^14C]acetic acid, using a protocol adapted from Byrne et al. ([2014]). Briefly, culture medium was removed and cells were washed with warm PBS. Next, cells were incubated for 3 h with phenol red-free William’s E medium containing 1% fatty acid-free BSA, [2-^14C]acetic acid (1850 Bq per well, corresponding to 19.4 pM) and 50 μM cold acetic acid. Medium was then gently removed and cells were washed with warm PBS before adding a mix of hexane/isopropanol (3:2; v/v). Cell culture plates were sealed and incubated for 1 h at room temperature for lipid extraction. After transfer of the plate content in 200-μL microtubes, hexane and PBS were added to have a hexane/isopropanol/PBS ratio of 6:2:3 (v/v/v). Microtubes were then centrifuged at 1000×g for 5 min and radiolabeled lipids were counted in the upper phase with a Tri-Carb 4910TR liquid scintillation counter (PerkinElmer). Results were normalized to total protein content and expressed in comparison to control cells.

[7] = system: apolipoprotein C3 (APOC3); test: RT-qPCR APOC3 mRNA in HepaRG cells; assay type: cell-based, human; conditions: 4 days, vs control
Experimental: as §1

DDIT3 (CHOP) = test: RT-qPCR DDIT3 mRNA in HepaRG cells; assay type: cell-based, human; conditions: 4 days, vs control
Experimental: as §1

HSPA5 (BIP) = test: RT-qPCR HSPA5 mRNA in HepaRG cells; assay type: cell-based, human; conditions: 4 days, vs control
Experimental: as §1

ERN1 (IRE1α) = test: RT-qPCR ERN1 mRNA in HepaRG cells; assay type: cell-based, human; conditions: 4 days, vs control
Experimental: as §1

[8] = system: microsomal triglyceride transfer protein (MTTP); test: RT-qPCR MTTP mRNA in HepaRG cells; assay type: cell-based, human; conditions: 4 days, vs control
Experimental: as §1

[9] = TUDCA 2 or 4 mM with 750 μM ALLO, 300 μM INDO, 300 μM RIF or 10 μM tunicamycin

| Compound | Effect on APOB mRNA level in cells cotreated with ALLO, INDO, RIF or tunicamycin (apolipoprotein B (APOB); [9]) | Increase in the number of nuclei (HepaRG cells [1]) [%] | Effect on neutral lipid accumulation induced by ALLO, INDO, RIF or tunicamycin (HepaRG cells [2]; [9]) | Effect on apoB secretion in cells cotreated with ALLO, INDO, RIF or tunicamycin (apoB secretion; [9]) | APOB mRNA level (apolipoprotein B (APOB); vs control) | Effect on mtFAO [3] | P4HB (PDI) mRNA level [4] | ANGPTL3 mRNA level [5] | Effect on DNL [6] | APOC3 mRNA level [7] | DDIT3 (CHOP) mRNA level (DDIT3 (CHOP)) | HSPA5 (BIP) mRNA level (HSPA5 (BIP)) | ERN1 (IRE1α) mRNA level (ERN1 (IRE1α)) | MTTP mRNA level [8] | Effect on apoB secretion (apoB secretion) | Accumulation of neutral lipids (steatosis) (HepaRG cells [2]; selected concentrations (ATP loss < 30%, not above 100 × Cmax), vs control) |
| --- | --- | --- | --- | --- | --- | --- | --- | --- | --- | --- | --- | --- | --- | --- | --- | --- |
| C[C@H](CCC(=O)NCCS(=O)(=O)O)[C@H]1CC[C@H]2[C@@H]3[C@@H](O)C[C@@H]4C[C@H](O)CC[C@]4(C)[C@H]3CC[C@]12C [TUDCA, tauroursodeoxycholic acid] | higher apoB mRNA level | 38 | alleviate neutral lipid accumulation | improved apoB secretion |  |  |  |  |  |  |  |  |  |  |  |  |
| C/C=C(/C)C(=O)O[C@H]1C(C)=C2[C@H]([C@@H]1OC(=O)CCCCCCC)[C@@](C)(OC(C)=O)C[C@H](OC(=O)CCC)[C@@]1(O)[C@H]2OC(=O)[C@@]1(C)O [thapsigargin] |  |  |  |  | also reduced APOB mRNA abundance | increased mtFAO | induced | reduced the mRNA level | strongly reduced DNL | reduced the mRNA level | augmented the mRNA level | augmented the mRNA level | augmented the mRNA level | reduced the mRNA level | reduced secretion of apoB |  |
| tunicamycin |  |  |  |  |  | increased mtFAO | induced | reduced the mRNA level | strongly reduced DNL | reduced the mRNA level | augmented the mRNA level | augmented the mRNA level | augmented the mRNA level | reduced the mRNA level | reduced secretion of apoB | increased neutral lipids |

From publication PMC8012331, “Drug-induced hepatic steatosis in absence of severe mitochondrial dysfunction in HepaRG cells: proof of multiple mechanism-based toxicity” (Cell Biology and Toxicology, 2020)
